Read-outs that look alike come from different tables or passages of the source.
Legend:
[1] = tested on: acute intoxication of male Wistar rats with ethylene glycol (EG); conditions: rat, in vivo
in vivo = conditions: male, Wistar, rat, sc

Cc1cn[nH]c1 [4MP, 4-methylpyrazole]
LD50 (toxicity parameter of EG) ([1]; male, Wistar, sc): 13000 mg/kg | K - Coefficient of efficiency (ratio of LD50 for treated animals to LD50 for non-treated animals) [1]: 3.71 | KG - Coefficient of guaranteed defense (ratio of LD10 for treated animals to LD90 for non-treated animals) [1]: 2.04 | LD10 (toxicity parameter of EG) ([1]; sc): 10600 mg/kg | LD16 (toxicity parameter of EG) ([1]; sc): 11000 mg/kg | LD84 (toxicity parameter of EG) ([1]; sc): 15200 mg/kg | LD90 (toxicity parameter of EG) ([1]; sc): 16100 mg/kg

OCCO [EG, Ethylene Glycol]
LD50 (in vivo): 3500 mg/kg | LD10 (toxicity parameter of EG) ([1]; male, Wistar, sc): 2220 mg/kg | LD16 (toxicity parameter of EG) ([1]; male, Wistar, sc): 2490 mg/kg | LD84 (toxicity parameter of EG) ([1]; male, Wistar, sc): 4530 mg/kg | LD90 (toxicity parameter of EG) ([1]; male, Wistar, sc): 5200 mg/kg

Source: patent publication US20100249116A1 (priority 2007, published 2010)
